The supplement of paper PMC10307832

Tests used:
Experiment in all cases: relative viability (nuclei count vs DMSO), 5 days (fraction); higher = more cells survive
Crenolanib + Pictilisib = compound: CC1(COc2ccc3c(c2)ncn3-c2ccc3cccc(N4CCC(N)CC4)c3n2)COC1 [Crenolanib] + CS(=O)(=O)N1CCN(Cc2cc3nc(-c4cccc5[nH]ncc45)nc(N4CCOCC4)c3s2)CC1 [Pictilisib] (partner 1 µM)
Outline: (§1)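 After 5 days of treatment, lung cancer cells in 1536-well plates were fixed and stained in a single step (final 0.05% Triton X-100, 1% formaldehyde, 1 ug/ml Hoechst) and their nuclei counted on 4× images. Treatment had been applied by pin tool the day after seeding as one drug alone or as a fixed anchor-drug dose with five library-drug doses (not always all listed) in √10 steps. Relative viability is the nuclei count of treated wells divided by that of vehicle wells, and values are medians of duplicate plates.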

Tivantinib + Lapatinib = compound: O=C1NC(=O)[C@@H](c2cn3c4c(cccc24)CCC3)[C@@H]1c1c[nH]c2ccccc12 [Tivantinib] + CS(=O)(=O)CCNCc1ccc(-c2ccc3ncnc(Nc4ccc(OCc5cccc(F)c5)c(Cl)c4)c3c2)o1 [Lapatinib] (partner 2 µM)
Outline: as §1

Crenolanib + Lapatinib = compound: CC1(COc2ccc3c(c2)ncn3-c2ccc3cccc(N4CCC(N)CC4)c3n2)COC1 [Crenolanib] + CS(=O)(=O)CCNCc1ccc(-c2ccc3ncnc(Nc4ccc(OCc5cccc(F)c5)c(Cl)c4)c3c2)o1 [Lapatinib] (partner 2 µM)
Outline: as §1

Tivantinib + Alpelisib = compound: O=C1NC(=O)[C@@H](c2cn3c4c(cccc24)CCC3)[C@@H]1c1c[nH]c2ccccc12 [Tivantinib] + Cc1nc(NC(=O)N2CCC[C@H]2C(N)=O)sc1-c1ccnc(C(C)(C)C(F)(F)F)c1 [Alpelisib] (partner 2 µM)
Outline: as §1

Cell Line | relative viability (Crenolanib + Pictilisib; first compound 0.01 µM) | relative viability (Crenolanib + Pictilisib; first compound 0.03162 µM) | relative viability (Crenolanib + Pictilisib; first compound 0.1 µM) | relative viability (Crenolanib + Pictilisib; first compound 0.3162 µM) | relative viability (Crenolanib + Pictilisib; first compound 1 µM) | relative viability (Tivantinib + Lapatinib; first compound 0.01 µM) | relative viability (Tivantinib + Lapatinib; first compound 0.03162 µM) | relative viability (Tivantinib + Lapatinib; first compound 0.1 µM) | relative viability (Tivantinib + Lapatinib; first compound 0.3162 µM) | relative viability (Crenolanib + Lapatinib; first compound 0.01 µM) | relative viability (Crenolanib + Lapatinib; first compound 0.03162 µM) | relative viability (Crenolanib + Lapatinib; first compound 0.1 µM) | relative viability (Crenolanib + Lapatinib; first compound 0.3162 µM) | relative viability (Crenolanib + Lapatinib; first compound 1 µM) | relative viability (Tivantinib + Alpelisib; first compound 0.01 µM) | relative viability (Tivantinib + Alpelisib; first compound 0.03162 µM) | relative viability (Tivantinib + Alpelisib; first compound 0.1 µM) | relative viability (Tivantinib + Alpelisib; first compound 0.3162 µM)
NCI-H2228 | 0.372 | 0.397 | 0.272 | 0.491 | 0.361 | 1.12 | 1.08 | 1.07 | 0.676 | 0.964 | 0.876 | 0.969 | 1.27 | 1.28 | 0.842 | 0.644 | 0.618 | 0.695
IA-LM | 0.331 | 0.305 | 0.314 | 0.64 | 0.522 | 0.871 | 0.882 | 0.669 | 0.771 | 0.741 | 0.951 | 0.732 | 0.978 | 1.51 | 0.878 | 0.653 | 0.853 | 0.815
CAL-12T | 0.45 | 0.407 | 0.519 | 0.454 | 0.44 | 0.723 | 0.62 | 0.644 | 0.424 | 0.73 | 0.618 | 0.661 | 0.703 | 0.821 | 1.19 | 1.32 | 1.09 | 0.8
NCI-H596 | 0.351 | 0.398 | 0.342 | 0.353 | 0.397 | 1.04 | 1.05 | 1.01 | 0.964 | 0.947 | 1.09 | 0.89 | 1.14 | 1.18 | 0.623 | 0.397 | 0.358 | 0.433
NCI-H1792 | 0.32 | 0.34 | 0.29 | 0.269 | 0.195 | 0.91 | 0.939 | 0.822 | 0.964 | 0.977 | 0.851 | 0.835 | 1.09 | 0.874 | 0.804 | 0.633 | 0.699 | 0.415
NCI-H2085 | 0.45 | 0.412 | 0.481 | 0.469 | 0.5 | 0.824 | 0.77 | 0.765 | 0.82 | 0.65 | 0.81 | 0.731 | 0.745 | 0.799 | 1.03 | 0.934 | 1.01 | 0.837
NCI-H2023 | 0.264 | 0.288 | 0.233 | 0.278 | 0.205 | 0.884 | 0.735 | 0.703 | 0.577 | 1.04 | 0.898 | 0.844 | 0.889 | 0.47 | 0.549 | 0.642 | 0.5 | 0.492
